The values that follow come from patent US20150307520A1, “NOVEL HETEROARYL AND HETEROCYCLE COMPOUNDS, COMPOSITIONS AND METHODS THEREOF” (HUTCHISON MEDIPHARMA LIMITED, priority 2012, published 2015).

One experiment deals with p110α/p85α (Homo sapiens, UniProt P42336). Nature of the experiment: Transcreener KINASE Assay, kinase inhibition of p110α/p85α. In kind it is biochemical. The note with it: read-out: PI3Kα IC50. In outline:
(§1)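 Steps: compound (2% DMSO final) plus enzyme in HEPES/NaCl/EGTA/CHAPS/3 mM MgCl2/1 mM DTT buffer; start with PIP2/ATP addition (30 uM/10 uM solution); 80 min RT; add ADP detection mix, 60 min RT; read fluorescence polarization.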

A further experiment concerns the target p110β/p85α (Homo sapiens, UniProt P42338). Nature of the experiment: Transcreener KINASE Assay, kinase inhibition of p110β/p85α. In kind it is biochemical. Particulars: for PI3Kβ IH % @ 1 uM: 1 uM test compound; for IC50: read-out: PI3Kβ IC50. In outline: as §1
The next experiment has as its target p110δ/p85α (Homo sapiens, UniProt O00329). Nature of the experiment: Transcreener KINASE Assay, kinase inhibition of p110δ/p85α. In kind it is biochemical. Particulars: for PI3Kδ IH % @ 1 uM: 1 uM test compound; for IC50: read-out: PI3Kδ IC50. In outline:
as §1

For the next experiment, the target named is p110γ (Homo sapiens, UniProt P48736). Nature of the experiment: Transcreener KINASE Assay, kinase inhibition of p110γ. It is filed as biochemical. The note with it: for PI3Kγ IH % @ 1 uM: 1 uM test compound; for IC50: read-out: PI3Kγ IC50. In outline:
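Homogeneous endpoint format using recombinant enzymes; ADP measured by far-red FP immunoassay after 80 min reaction and 60 min detection, both at room temperature.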

The next experiment addresses PI3Kγ (Mus musculus, UniProt Q9JHG7). In words: Acumen Assay - Raw264.7 p-AKT Assay (C5a stimulated). It is filed as cell-based. Particulars: Raw264.7 macrophage cells, compound 30 min, stimulated with 10 nM C5a for 5 min, p-AKT (Ser473) readout; read-out: PI3Kγ cell-C5a Raw264.7 IC50. On the procedure:
Acumen Assay—Raw264.7 p-AKT Assay
Acumen® eX3 (A Multilaser Microplate Cytometer For Enhanced High Content Screening): TTP LabTech
3×10^4 Raw264.7 macrophage cells were seeded into 96-well plates with DMEM+10% heat-inactivated FBS at […], 90 ul/well, overnight. After starvation for 3 hr at 37° C. under 5% CO2, Raw264.7 cells were treated with 10 ul/well various concentrations of compound or 0.5% DMSO for 30 min, and then stimulated with 10 ul/well 10 nM C5a for 5 min.
1.) Cells were fixed 110 μL of 4% pre-warmed Paraformaldehyde (2% final), incubate for 45 min at room temperature. 2.) Remove paraformaldehyde solution. Add 100 μL of ice-cold 0.1% Triton X-100 in PBS and leave at 4° C. for 30 min. 3.) Wash once in 100 μL PBS. 4.) Incubate with 100 μL blocking buffer (1% BSA, in PBS) for 2 hours at room temperature. 5.) Wash once for 5 min with 100 ul PBS. 6.) Incubate with 40 μL 1:200 dilution of phospho AKT (Ser473) rabbit antibody in antibody dilution buffer (0.1% BSA, in PBS) overnight at 4° C. 7.) Wash for 3 times for 10 min with 100 ul PBS. 8.) Incubate for 90 min at room temperature with 50 μL of goat anti-rabbit Alex488 antibody at a 1:1,000 dilution in antibody dilution buffer (0.1% BSA, in PBS). Cover plate in foil to keep out of light. 9.) Wash for 3 times for 10 min with 100 μL PBS. 10.) Add 50 μL of 1.5 μM Propidium Iodide solution to each well to determine cell number at a 1:1,000 dilution in PBS (stock: 1.5 mM). 11.) Incubate at room temperature for 30 min. 12.) Seal the plate with a black cover-seal (supplied with plate). 13.) Load the plate into the Acumen Explorer and scan with the appropriate instrument settings.

PI3Kγ, sequence (Q9JHG7 whole entry): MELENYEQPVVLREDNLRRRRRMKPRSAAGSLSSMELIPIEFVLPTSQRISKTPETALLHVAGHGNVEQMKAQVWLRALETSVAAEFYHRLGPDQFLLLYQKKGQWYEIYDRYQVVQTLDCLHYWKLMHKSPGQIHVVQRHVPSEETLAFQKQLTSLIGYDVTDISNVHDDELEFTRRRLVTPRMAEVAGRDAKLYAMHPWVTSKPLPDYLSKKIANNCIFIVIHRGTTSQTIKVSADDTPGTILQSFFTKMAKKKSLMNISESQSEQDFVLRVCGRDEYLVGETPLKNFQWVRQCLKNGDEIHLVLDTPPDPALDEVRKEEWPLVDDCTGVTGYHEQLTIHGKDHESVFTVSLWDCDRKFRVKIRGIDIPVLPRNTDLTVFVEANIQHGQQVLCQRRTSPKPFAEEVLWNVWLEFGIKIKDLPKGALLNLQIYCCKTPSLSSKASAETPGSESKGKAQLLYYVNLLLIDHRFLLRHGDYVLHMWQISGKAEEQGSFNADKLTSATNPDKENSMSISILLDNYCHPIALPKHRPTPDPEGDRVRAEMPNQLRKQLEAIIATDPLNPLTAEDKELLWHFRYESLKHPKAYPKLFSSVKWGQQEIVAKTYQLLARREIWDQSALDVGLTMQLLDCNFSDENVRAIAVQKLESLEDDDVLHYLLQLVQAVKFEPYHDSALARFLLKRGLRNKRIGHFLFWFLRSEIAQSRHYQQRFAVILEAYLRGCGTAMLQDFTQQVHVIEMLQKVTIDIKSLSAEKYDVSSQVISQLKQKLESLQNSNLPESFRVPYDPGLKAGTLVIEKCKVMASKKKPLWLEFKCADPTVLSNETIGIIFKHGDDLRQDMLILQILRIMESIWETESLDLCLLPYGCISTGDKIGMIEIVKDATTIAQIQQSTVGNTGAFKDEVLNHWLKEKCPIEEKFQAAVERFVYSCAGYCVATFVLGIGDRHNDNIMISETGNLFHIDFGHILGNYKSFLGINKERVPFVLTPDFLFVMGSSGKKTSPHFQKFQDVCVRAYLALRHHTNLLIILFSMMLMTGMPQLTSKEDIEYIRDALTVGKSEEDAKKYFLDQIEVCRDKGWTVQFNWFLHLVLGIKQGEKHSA
p110α/p85α, sequence (P42336 whole entry): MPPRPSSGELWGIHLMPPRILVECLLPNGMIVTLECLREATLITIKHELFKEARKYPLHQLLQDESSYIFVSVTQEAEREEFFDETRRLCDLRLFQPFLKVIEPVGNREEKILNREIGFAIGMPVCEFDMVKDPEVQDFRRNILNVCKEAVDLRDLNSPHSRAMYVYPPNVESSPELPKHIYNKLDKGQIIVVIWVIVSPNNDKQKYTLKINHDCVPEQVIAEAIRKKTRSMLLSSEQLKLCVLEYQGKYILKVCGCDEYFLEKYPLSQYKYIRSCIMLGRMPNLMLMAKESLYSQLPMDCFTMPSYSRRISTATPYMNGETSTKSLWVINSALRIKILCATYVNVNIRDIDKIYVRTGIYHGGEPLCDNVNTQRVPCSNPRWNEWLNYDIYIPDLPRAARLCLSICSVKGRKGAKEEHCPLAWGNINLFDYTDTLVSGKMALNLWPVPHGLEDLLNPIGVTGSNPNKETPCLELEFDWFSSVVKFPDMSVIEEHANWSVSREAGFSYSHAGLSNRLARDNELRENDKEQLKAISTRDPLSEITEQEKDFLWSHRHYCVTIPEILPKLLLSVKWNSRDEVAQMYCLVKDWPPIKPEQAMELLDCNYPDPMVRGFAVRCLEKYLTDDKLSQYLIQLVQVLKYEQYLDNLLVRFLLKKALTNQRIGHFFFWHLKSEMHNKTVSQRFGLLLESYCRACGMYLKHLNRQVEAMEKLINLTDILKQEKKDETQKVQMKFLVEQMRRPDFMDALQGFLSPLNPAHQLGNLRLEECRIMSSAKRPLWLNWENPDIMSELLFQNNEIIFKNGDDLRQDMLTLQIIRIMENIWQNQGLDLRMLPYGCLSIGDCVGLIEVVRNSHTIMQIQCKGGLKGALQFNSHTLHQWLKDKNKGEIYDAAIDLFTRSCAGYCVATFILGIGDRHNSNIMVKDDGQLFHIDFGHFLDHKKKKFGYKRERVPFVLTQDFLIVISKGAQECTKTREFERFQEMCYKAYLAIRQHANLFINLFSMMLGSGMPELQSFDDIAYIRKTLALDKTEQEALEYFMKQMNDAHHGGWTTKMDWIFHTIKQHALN
p110α/p85α, sequence (P27986 whole entry partner): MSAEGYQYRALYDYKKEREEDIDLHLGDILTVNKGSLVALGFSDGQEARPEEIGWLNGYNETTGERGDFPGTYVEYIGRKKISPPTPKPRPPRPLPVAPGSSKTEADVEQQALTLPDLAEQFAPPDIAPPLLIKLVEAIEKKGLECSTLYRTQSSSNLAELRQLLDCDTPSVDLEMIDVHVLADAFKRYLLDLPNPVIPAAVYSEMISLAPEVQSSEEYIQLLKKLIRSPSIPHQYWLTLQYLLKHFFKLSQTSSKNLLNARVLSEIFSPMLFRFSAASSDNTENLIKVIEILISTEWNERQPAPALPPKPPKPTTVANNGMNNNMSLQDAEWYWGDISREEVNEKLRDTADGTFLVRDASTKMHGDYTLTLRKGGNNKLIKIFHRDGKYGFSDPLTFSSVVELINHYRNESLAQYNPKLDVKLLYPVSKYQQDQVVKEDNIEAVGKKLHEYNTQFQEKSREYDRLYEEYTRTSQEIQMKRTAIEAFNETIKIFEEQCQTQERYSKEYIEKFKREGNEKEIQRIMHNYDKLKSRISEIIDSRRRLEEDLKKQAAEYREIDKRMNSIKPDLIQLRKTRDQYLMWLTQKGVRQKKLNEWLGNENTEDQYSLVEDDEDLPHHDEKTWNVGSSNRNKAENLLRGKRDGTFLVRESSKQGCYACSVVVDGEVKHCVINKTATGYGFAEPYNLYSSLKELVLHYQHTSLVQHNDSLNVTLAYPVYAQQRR
p110β/p85α, sequence (P42338 whole entry): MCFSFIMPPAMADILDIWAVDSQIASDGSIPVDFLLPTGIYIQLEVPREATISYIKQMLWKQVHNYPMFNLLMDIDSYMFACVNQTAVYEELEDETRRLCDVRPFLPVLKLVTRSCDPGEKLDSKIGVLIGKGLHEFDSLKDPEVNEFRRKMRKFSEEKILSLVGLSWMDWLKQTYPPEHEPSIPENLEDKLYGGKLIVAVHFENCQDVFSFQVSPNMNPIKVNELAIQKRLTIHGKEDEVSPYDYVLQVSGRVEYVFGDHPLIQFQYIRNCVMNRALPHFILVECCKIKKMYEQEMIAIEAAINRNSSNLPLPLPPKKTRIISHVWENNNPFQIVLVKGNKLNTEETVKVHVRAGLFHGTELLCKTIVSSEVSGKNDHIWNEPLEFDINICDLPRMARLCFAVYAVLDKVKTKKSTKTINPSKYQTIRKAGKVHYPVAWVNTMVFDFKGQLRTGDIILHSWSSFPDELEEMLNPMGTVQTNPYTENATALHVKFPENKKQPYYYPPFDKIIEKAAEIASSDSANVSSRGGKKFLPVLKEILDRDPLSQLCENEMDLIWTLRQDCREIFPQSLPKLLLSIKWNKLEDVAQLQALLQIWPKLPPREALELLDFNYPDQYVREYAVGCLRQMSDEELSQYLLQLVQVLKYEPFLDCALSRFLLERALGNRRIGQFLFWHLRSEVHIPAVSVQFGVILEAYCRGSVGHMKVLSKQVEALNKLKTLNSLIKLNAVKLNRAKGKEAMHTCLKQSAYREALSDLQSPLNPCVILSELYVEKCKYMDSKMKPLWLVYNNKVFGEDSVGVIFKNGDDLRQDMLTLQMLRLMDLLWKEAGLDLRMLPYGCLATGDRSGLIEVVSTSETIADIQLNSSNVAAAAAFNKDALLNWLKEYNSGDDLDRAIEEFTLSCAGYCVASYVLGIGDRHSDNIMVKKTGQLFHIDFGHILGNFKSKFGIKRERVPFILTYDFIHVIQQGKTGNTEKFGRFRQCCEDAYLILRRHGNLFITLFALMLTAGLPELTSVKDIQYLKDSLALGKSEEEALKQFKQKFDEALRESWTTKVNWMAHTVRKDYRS
p110β/p85α, sequence (P27986 2-724 partner): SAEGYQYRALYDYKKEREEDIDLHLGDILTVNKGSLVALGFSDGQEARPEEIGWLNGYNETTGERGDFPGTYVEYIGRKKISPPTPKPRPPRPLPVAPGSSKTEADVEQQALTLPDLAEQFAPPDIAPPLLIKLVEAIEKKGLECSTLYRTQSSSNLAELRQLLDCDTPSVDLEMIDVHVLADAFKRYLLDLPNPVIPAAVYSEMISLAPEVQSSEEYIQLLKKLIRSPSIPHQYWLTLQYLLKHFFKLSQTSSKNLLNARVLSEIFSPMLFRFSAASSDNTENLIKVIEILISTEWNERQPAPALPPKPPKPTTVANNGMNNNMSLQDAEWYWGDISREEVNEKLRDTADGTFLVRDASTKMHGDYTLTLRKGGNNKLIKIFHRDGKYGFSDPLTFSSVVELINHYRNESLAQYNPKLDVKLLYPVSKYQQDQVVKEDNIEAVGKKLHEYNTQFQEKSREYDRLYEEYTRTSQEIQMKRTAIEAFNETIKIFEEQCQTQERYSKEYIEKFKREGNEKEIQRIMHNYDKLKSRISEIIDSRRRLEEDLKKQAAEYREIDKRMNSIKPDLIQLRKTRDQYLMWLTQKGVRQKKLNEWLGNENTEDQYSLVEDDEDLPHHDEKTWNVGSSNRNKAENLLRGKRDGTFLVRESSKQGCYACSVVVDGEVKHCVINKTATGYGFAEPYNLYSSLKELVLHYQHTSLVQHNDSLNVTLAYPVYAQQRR

With `CC(=O)c1cnc(N)nc1N1C[C@H](C)[C@H]1c1nn2ccc(Cl)c2c(=O)n1-c1ccccn1` [Compound 473], the IC50 (in general, the concentration that gives 50% inhibition) on p110α/p85α worked out at 921 nM; at p110β/p85α, 454 nM; on p110δ/p85α it was 2 nM; on p110γ it was 10 nM; on PI3Kγ, 36 nM. The “PI3Kβ IH % @ 1 uM” value at p110β/p85α is given as 67.3%. Further, the “PI3Kδ IH % @ 1 uM” value at p110δ/p85α is reported as above 100%. The “PI3Kγ IH % @ 1 uM” value at p110γ amounted to 97.0%.

On to `C[C@H]1CN(c2nc(N)nc(N)c2C#N)[C@@H]1c1nn2ccc(Cl)c2c(=O)n1-c1ccc(F)cc1` [Compound 480], for which the IC50 on p110α/p85α was 648 nM; at p110β/p85α, 81 nM; at p110δ/p85α, 3 nM; at p110γ it was 2 nM; at PI3Kγ, 11 nM. Also, the “PI3Kβ IH % @ 1 uM” value at p110β/p85α came to 93.6%. Besides, at p110δ/p85α, the “PI3Kδ IH % @ 1 uM” value is above 100%. For the same compound, the “PI3Kγ IH % @ 1 uM” value at p110γ was above 100%.

For `C[C@H]1CN(c2nc(N)nc(N)c2C#N)[C@@H]1c1nn2ccc(Cl)c2c(=O)n1-c1ccccc1` [Compound 481], the IC50 at p110α/p85α stood at 558 nM; at p110β/p85α, 78 nM; at p110δ/p85α, 1 nM; on p110γ it was 3 nM; on PI3Kγ it was 14 nM. For the same compound, the “PI3Kβ IH % @ 1 uM” value on p110β/p85α was found to be 92.0%. The “PI3Kδ IH % @ 1 uM” value at p110δ/p85α is given as above 100%. In addition, the “PI3Kγ IH % @ 1 uM” value on p110γ is given as above 100%.

For `Cc1cc(Cl)c2c(=O)n(-c3ccccc3)c([C@@H]3CCN3c3ncnc4[nH]cnc34)nn12` [Compound 496], the “PI3Kβ IH % @ 1 uM” value on p110β/p85α is on record as 18.3%. Also, the “PI3Kδ IH % @ 1 uM” value at p110δ/p85α was determined as 34.2%. The “PI3Kγ IH % @ 1 uM” value on p110γ is 17.2%. Also, on PI3Kγ, the half-maximal inhibitory concentration (IC50) came out at 2 nM.
